Test results: patent US10344019B2 (priority 2010, dated 2019)

What was measured:
Assay type in all cases: cell-based
[1] = system: HCV 4a Rluc cells (NS5A chimeric genotype 1b Con1 replicon with genotype 4a NS5A gene); assay: microbe, parasite or virus in culture; settings: Hepatitis C virus, read-out: 4a
Procedure, shortened: (§1)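 Replicon cells stably carrying the listed RLuc-encoding dicistronic replicons were seeded and treated with DMSO serial dilutions of compound (10 mM stocks) diluted into culture medium. After 72 h, cells were lysed and Renilla luciferase activity measured. EC50 was derived by non-linear regression.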

[2] = system: HCV 3a RLuc cells (NS5A chimeric genotype 1b Con1 replicon with consensus genotype 3a NS5A gene); assay: microbe, parasite or virus in culture; settings: Hepatitis C virus, read-out: 3a, genotype 3a NS5A chimeric replicon
Procedure, shortened: as §1

[3] = system: HCV 1a RLuc cells (dicistronic genotype 1a H77 replicon, RLuc reporter); assay: microbe, parasite or virus in culture; settings: Hepatitis C virus, genotype 1a H77 RLuc replicon; read-out: 1a
Procedure, shortened: as §1

[4] = system: HCV 2a JFH-1 Rluc cells (dicistronic genotype 2a JFH-1 replicon, RLuc reporter); assay: microbe, parasite or virus in culture; settings: Hepatitis C virus, genotype 2a JFH-1 RLuc replicon; read-out: 2a JFH
Procedure, shortened: as §1

[5] = system: HCV 2b Rluc cells (NS5A chimeric genotype 2a JFH-1 replicon with genotype 2b MD2b-1 NS5A gene, M31 present); assay: microbe, parasite or virus in culture; settings: Hepatitis C virus, read-out: 2b
Procedure, shortened: as §1

[6] = system: HCV 1b RLuc cells (dicistronic genotype 1b Con1 replicon, RLuc reporter); assay: microbe, parasite or virus in culture; settings: Hepatitis C virus, read-out: 1b (nM)
Procedure, shortened: as §1

[7] = system: HCV 2a Rluc cells (NS5A chimeric genotype 2a JFH-1 replicon with genotype 2a J6 strain NS5A gene, M31 present); assay: HCV replicon reporter assay, genotype 2a J6 (M31 present); settings: Hepatitis C virus, read-out: 2a J6
Procedure, shortened: as §1

SMILES	EC50 [1]	EC50 [2]	EC50 [3]	EC50 [4]	EC50 [5]	EC50 [6]	EC50 [7]
CC#Cc1cc(-c2cnc([C@@H]3CCCN3C(=O)[C@@H](NC(=O)OC)C(C)C)[nH]2)ccc1-c1ccc2c(ccc3nc([C@@H]4C[C@H](COC)CN4C(=O)[C@H](NC(=O)OC)c4ccccc4)[nH]c32)c1 [Example 549]	0.001 to 0.99 nM	0.001 to 0.99 nM	0.001 to 0.999 nM	0.001 to 0.999 nM	0.001 to 0.999 nM	0.007 nM	0.001 to 0.999 nM
COC[C@H]1C[C@@H](c2nc3ccc4cc(-c5ccc6c(ccc7nc([C@@H]8C[C@H](C)CN8C(=O)[C@@H](NC(=O)OC)C(C)C)[nH]c76)c5)ccc4c3[nH]2)N(C(=O)[C@H](NC(=O)OC)c2ccccc2)C1 [Example 553]	0.001 to 0.99 nM	0.001 to 0.99 nM	0.001 to 0.999 nM	0.001 to 0.999 nM	0.001 to 0.999 nM	0.014 nM	0.001 to 0.999 nM
COC(=O)N[C@H](C(=O)N1C[C@@H](C)C[C@H]1c1ncc(-c2cc3c4c(c2)OCc2cc(-c5cnc([C@@H]6C[C@H](C)CN6C(=O)[C@H](NC(=O)OC)c6ccccc6)[nH]5)cc(c2-4)OC3)[nH]1)C(C)C [Example 564]	0.001 to 0.99 nM	0.001 to 0.99 nM	0.001 to 0.999 nM	0.001 to 0.999 nM	0.001 to 0.999 nM	0.012 nM	1 to 44 nM
COC[C@H]1C[C@@H](c2ncc(-c3ccc(-c4ccc(-c5cnc([C@@H]6C[C@H](SC)CN6C(=O)[C@@H](NC(=O)OC)C(C)C)[nH]5)cc4)cc3)[nH]2)N(C(=O)[C@H](NC(=O)C2CC2)c2ccccc2)C1 [Example 570]	0.001 to 0.99 nM	0.001 to 0.99 nM	0.001 to 0.999 nM	0.001 to 0.999 nM	0.001 to 0.999 nM	0.033 nM	0.001 to 0.999 nM
COC(=O)N[C@H](C(=O)N1CCCC1c1ncc(-c2ccc3c(c2)COc2cc4c(ccc5nc([C@@H]6C[C@@H]7CCC[C@@H]7N6C(=O)[C@@H](NC(=O)OC)C(C)C)[nH]c54)cc2-3)[nH]1)C(C)C (stereo partly drawn) [Example 576]	0.001 to 0.99 nM	0.001 to 0.99 nM	0.001 to 0.999 nM	0.001 to 0.999 nM	0.001 to 0.999 nM	0.014 nM	1 to 44 nM
COC(=O)N[C@H](C(=O)N1C[C@@H](C)C[C@H]1c1ncc(-c2cc3c4c(c2)OCc2cc(-c5cnc([C@@H]6C[C@H](C)CN6C(=O)[C@H](NC(=O)C6C(C)(C)C6(C)C)c6ccccc6)[nH]5)cc(c2-4)OC3)[nH]1)C(C)C [Example 577]	0.001 to 0.99 nM	0.001 to 0.99 nM	0.001 to 0.999 nM	0.001 to 0.999 nM	1 to 44 nM	0.017 nM	> 44 nM
COC[C@H]1CC[C@@H](c2ncc(-c3cc4c5c(c3)OCc3cc(-c6cnc([C@@H]7CC[C@H](COC)N7C(=O)[C@@H](NC(=O)OC)C(C)C)[nH]6)cc(c3-5)OC4)[nH]2)N1C(=O)[C@@H](NC(=O)OC)C(C)C [Example 578]	0.001 to 0.99 nM	0.001 to 0.99 nM	0.001 to 0.999 nM	0.001 to 0.999 nM	> 44 nM	0.022 nM	> 44 nM
CCS[C@H]1C[C@@H](c2nc3ccc4cc(-c5ccc6c(ccc7nc([C@@H]8C[C@H](COC)CN8C(=O)[C@H](NC(=O)OC)c8ccccc8)[nH]c76)c5)ccc4c3[nH]2)N(C(=O)[C@@H](NC(=O)OC)C(C)C)C1 [Example 583]	0.001 to 0.99 nM	0.001 to 0.99 nM	0.001 to 0.999 nM	0.001 to 0.999 nM	0.001 to 0.999 nM	0.018 nM	0.001 to 0.999 nM
COC[C@H]1C[C@@H](c2ncc(-c3ccc(-c4ccc(-c5cnc([C@@H]6CC[C@H](C)N6C(=O)[C@@H](NC(=O)OC)C(C)C)[nH]5)cc4)cc3)[nH]2)N(C(=O)[C@H](NC(=O)C2CC2)c2ccccc2)C1 [Example 591]	0.001 to 0.99 nM	0.001 to 0.99 nM	0.001 to 0.999 nM	0.001 to 0.999 nM	0.001 to 0.999 nM	0.016 nM	0.001 to 0.999 nM
